Source: patent US5317024A, “Ether derivatives of alkyl piperidines and pyrrolidines as antipsychotic agents” (DuPont Merck Pharmaceutical Co., priority 1993, dated 1994)
Structures can show the parent of a compound that is named as a salt. Where two headings read alike, the source gives them in different places.

Legend:
dopamine D-2 receptor = target: T1, dopamine D-2 receptor (Cavia porcellus, UniProt H0VE83); assay: Dopamine Receptor Binding ([3H]spiperone, striatum membranes); parameters: species or system guinea pig
T1 construct: Membranes were prepared from guinea pig striatum; from tissue; host or cells: guinea pig striatum membranes
Description: (§1) Male Hartley guinea pigs (250-300 g, Charles River) were sacrificed by decapitation. […] Whole brains were homogenized (20 seconds) in 10 vol (wt/vol) of ice-cold 0.34 M sucrose with a Brinkmann Polytron (setting 8). The homogenate was centrifuged at 920 × g for 10 minutes. The supernatant was centrifuged at 47,000 × g for 20 minutes. The resulting membrane pellet was resuspended in 10 vol (original wt/vol) of 50 mM Tris HCl (pH 7.4) and incubated at 37° C. for 45 minutes to degrade and dissociate bound endogenous ligands. The membranes were then centrifuged at 47,000 × g for 20 minutes and resuspended in 50 mM Tris HCl (50 mL per brain).
Membranes were prepared from guinea pig striatum by the method described for sigma receptor binding. The membranes were then resuspended in 50 mM Tris HCl (9 mL per brain).
Nonspecific binding was measured in the presence of 100 nM (+)-butaclamol.After 15 minutes of incubation at 37° C., samples were filtered rapidly through Whatman GF/C glass filters under negative pressure, and washed three times with ice-cold binding buffer (5 mL).
IC50 s were calculated from log-logit plots.

sigma receptor = sigma receptor (Cavia porcellus, UniProt Q60492); assay: biochemical; settings: 1 nM (+)-[3H]SKF 10,047, guinea pig brain membranes, pH 7.4, 45 min, room temperature; read-out: SIGMA receptor binding Ki
Description: as §1
After 45 minutes of incubation at room temperature, samples were filtered rapidly through Whatman GF/C. glass filters under negative pressure, and washed 3 times with ice-cold Tris buffer (5 mL).
IC50 s were calculated from log-logit plots. Apparent Ki s were calculated from the equation, Ki = IC50 /[1+(L/Kd)] (4), where L is the concentration of radio ligand and Kd is its dissociation constant.

[1] = Isolation-Induced Aggression in Mice; assay type: in vivo, Male Balb/c mice; settings: oral; for ED50: Mus musculus, 0.25 h, 15 min after dosing, isolated male Balb/c mice, read-out: Inhibition of Isolation-induced Aggression ED50; for inhibiting isolation-induced aggressive behavior (in words): mice, summary of Table 5
Description: Male Balb/c mice (Charles River) were used. […] Isolated mice failing to consistently attack an intruder were eliminated from the colony. Drug testing was carried out by treating the isolated mice with test drugs or standards. Fifteen minutes after dosing with test drugs by the oral route, one isolated mouse was removed from its home cage and placed in the home cage of another isolate. Scoring was a yes or no response for each pair. A maximum of 3 minutes was allowed for an attack and the pair was separated immediately upon an attack. Selection of home cage and intruder mice was randomized for each test. Mice were treated and tested twice a week with at least a 2 day washout period between treatments.

[2] = 0.15 nM [3H]spiperone, guinea pig striatum membranes, pH 7.7, 15 min, 37° C., read-out: DOPAMINE D-2 receptor binding Ki

sigma receptor, sequence (Q60492 whole entry): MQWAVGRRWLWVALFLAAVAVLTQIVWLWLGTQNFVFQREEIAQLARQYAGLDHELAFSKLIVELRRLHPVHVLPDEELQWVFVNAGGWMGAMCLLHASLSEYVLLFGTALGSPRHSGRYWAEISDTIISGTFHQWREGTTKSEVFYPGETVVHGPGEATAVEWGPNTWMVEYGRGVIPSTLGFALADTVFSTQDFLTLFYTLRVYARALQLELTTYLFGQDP
T1 sequence (H0VE83 1-446): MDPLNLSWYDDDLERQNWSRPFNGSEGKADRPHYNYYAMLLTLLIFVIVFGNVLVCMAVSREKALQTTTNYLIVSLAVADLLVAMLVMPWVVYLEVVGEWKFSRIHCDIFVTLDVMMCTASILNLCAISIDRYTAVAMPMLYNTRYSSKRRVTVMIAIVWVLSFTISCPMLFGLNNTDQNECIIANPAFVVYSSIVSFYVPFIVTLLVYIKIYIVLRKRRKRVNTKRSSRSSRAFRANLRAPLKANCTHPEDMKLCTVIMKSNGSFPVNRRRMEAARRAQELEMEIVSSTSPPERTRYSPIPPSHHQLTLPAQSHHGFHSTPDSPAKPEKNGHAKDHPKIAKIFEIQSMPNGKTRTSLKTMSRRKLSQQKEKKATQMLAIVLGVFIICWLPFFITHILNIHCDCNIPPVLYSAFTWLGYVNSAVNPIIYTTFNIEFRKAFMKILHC

| Ki (dopamine D-2 receptor; [2]) [µM] | Ki (sigma receptor) [µM] | Structure (SMILES) | Ki (dopamine D-2 receptor) [µM] | ED50 [1] [mg/kg] | inhibiting isolation-induced aggressive behavior (in words) [1] |
| --- | --- | --- | --- | --- | --- |
| > 0.5 | 0.001 to 0.03 | CCCCCCN1CCC(COC/C=C/c2ccccc2)CC1 [Example 36] | – | – | – |
| > 0.5 | 0.001 to 0.03 | C(=C\c1ccccc1)/COCC1CCN(CC2CC2)CC1 [Example 23] | – | – | – |
| > 0.5 | 0.001 to 0.03 | C(=C\c1ccccc1)/COC1CCN(Cc2ccccc2)CC1 [Example 31] | – | – | – |
| > 0.5 | 0.001 to 0.03 | C(#Cc1ccccc1)COCCC1CCN(Cc2ccccc2)CC1 [Example 40] | – | – | – |
| > 0.5 | 0.001 to 0.03 | C(=C\c1ccccc1)/COCC1CCN(CCCc2ccccc2)CC1 [Example 30, (E)-1-(3-phenyl)propyl-4-[(3-phenyl-2-propenyloxy)methyl]piperidine, hydrochloride salt] | – | – | – |
| > 0.5 | 0.001 to 0.03 | C(=C\c1ccccc1)/COC[C@@H]1CCCN1Cc1ccccc1 [Example 38] | – | – | – |
| – | – | O=C(CCCN1CCC(O)(c2ccc(Cl)cc2)CC1)c1ccc(F)cc1 [Haloperidol, reference compound] | – | < 10 | effective |
| > 0.5 | 0.001 to 0.03 | Fc1ccc(/C=C/COCC2CCN(Cc3ccccc3)CC2)cc1 [Example 22, (E)-1-benzyl-4-{[3-(4-fluoro)phenyl-2-propenyloxy]methyl} piperidine, hydrochloride salt] | – | – | – |
| > 0.5 | 0.001 to 0.03 | C(=C\c1ccccc1)/COCCC1CCCCN1Cc1ccccc1 (centres unmarked) [Example 24] | – | – | – |
| > 0.5 | 0.001 to 0.03 | C(=C\c1ccccc1)/COCC1CCN(Cc2ccccc2)CC1.Cl [Example 21, (E)-1-Benzyl-4-[(3-phenyl-2-propenyloxy)methyl]piperidine hydrochloride] | – | 21 to 70 | effective |
| > 0.5 | 0.001 to 0.03 | C(=C\c1ccccc1)/COCC1CCCN(Cc2ccccc2)C1 (centres unmarked) [Example 27] | – | – | – |
| > 0.5 | 0.001 to 0.03 | C(=C\c1ccccc1)/COCCC1CCN(Cc2ccccc2)CC1 [Example 41, (E)-1Benzyl-4-[(3-phenyl-2-propenyloxy)lethyl]piperidine, maleic acid salt] | – | – | – |
| > 0.5 | 0.001 to 0.03 | C(=C\c1ccccc1)/COC1CCN(Cc2ccccc2)C1 (centres unmarked) [Example 32] | – | – | – |
| 0.101 to 0.5 | 0.001 to 0.03 | C(#Cc1ccccc1)COCCC1CCN(CCc2ccccc2)CC1 [Example 39, 1-Phenethyl-4-(3-phenyl-2-propynyloxy)ethyl] piperidine, hydrochloride salt] | – | – | – |
| > 0.5 | 0.001 to 0.03 | C(=C\c1ccccc1)/COC[C@H]1CCCN1Cc1ccccc1 [Example 37] | – | – | – |
| > 0.5 | 0.001 to 0.03 | FC(F)(F)c1ccc(/C=C/COCC2CCN(Cc3ccccc3)CC2)cc1 [Example 35, (E)-1-benzyl-4-{[3-(4-trifluoromethyl)phenyl-2-propenyloxy]methyl}piperidine, maleic acid salt] | – | – | – |
| > 0.5 | 0.031 to 0.1 | C(=C\c1ccccc1)/COCC1CCN(Cc2cccc3ccccc23)CC1 [Example 33] | – | – | – |
| > 0.5 | 0.001 to 0.03 | C(=C\c1ccccc1)/COCC1CCN(Cc2ccc3ccccc3c2)CC1 [Example 26] | – | – | – |
| > 0.5 | 0.031 to 0.1 | C(=C/c1ccccc1)/COCCC1CCN(Cc2ccccc2)CC1 [Example 42, (Z)-1-Benzyl-4[(3-phenyl-2-propenyloxy)ethyl]piperidine] | – | – | – |
| > 0.5 | 0.001 to 0.03 | C(=C\c1ccccc1)/COCC1CCCCN1Cc1ccccc1 (centres unmarked) [Example 28] | – | – | – |
| > 0.5 | 0.001 to 0.03 | CC(C)=CCN1CCC(COC/C=C/c2ccccc2)CC1 [Example 29] | – | – | – |
| 0.101 to 0.5 | 0.001 to 0.03 | C(=C\c1ccccc1)/COCC1CCN(CCc2ccccc2)CC1 [Example 25, (E)-1-phenethyl-4-[(3-phenyl-2-propenyloxy)methyl] piperidine, hydrochloride salt] | – | 21 to 70 | effective |

| Structure (SMILES) | Ki (dopamine D-2 receptor; [2]) [µM] | Ki (sigma receptor) [µM] | Ki (dopamine D-2 receptor) [µM] | ED50 [1] [mg/kg] | inhibiting isolation-induced aggressive behavior (in words) [1] |
| --- | --- | --- | --- | --- | --- |
| C(COCC1CCN(Cc2ccccc2)CC1)=C(c1ccccc1)c1ccccc1 [Example 34] | – | 0.001 to 0.03 | > 0.5 | – | – |
